PMC4343023, “Selectivity of odorant-binding proteins from the southern house mosquito tested against physiologically relevant ligands” (Frontiers in Physiology, 2015)
Like-named read-outs stand apart in the source and are kept apart here.

Assays:
AfunOBP1 = tested on: AfunOBP1; set-up: method as in Xu et al., 2010; conditions: panel of EAG-active compounds; ref Xu et al., 2010; cited from earlier work
CquiOBP2 = CquiOBP2 (Culex quinquefasciatus, UniProt C7BDZ6); assay: biochemical; format: binding; conditions: for Int (fluorescence emission): residual NPN fluorescence, normalized to 100 prior to ligand, screen at 2–20 μM ligand; for binding to CquiOBP2 (in words): in vitro, NPN displacement
Sequence of CquiOBP2 (C7BDZ6 entry or part of it): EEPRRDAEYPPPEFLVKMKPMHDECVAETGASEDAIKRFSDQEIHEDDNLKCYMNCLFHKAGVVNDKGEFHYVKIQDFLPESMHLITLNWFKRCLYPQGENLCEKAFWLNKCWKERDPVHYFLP
Procedure: (§1) Binding affinity (Ban et al., [2002]) was tested with a panel of 34 compounds, including attractants, a mosquito oviposition pheromone, repellents, terpenoids and other putative mosquito attractants or repellents. Unless otherwise specified, they were purchased from Sigma-Aldrich/Fluka/Acros (St. Louis, MO). Repellents: DEET (N,N-diethyl-3-methylbenzamide), PMD (p-mentan-3,8-diol) (Bedoukian Research, Inc.), picaridin (butan-2-yl 2-(2-hydroxyethyl)piperidine-1-carboxylate), IR3535 (ethyl 3-[acetyl(butyl)amino]propanoate) (gifts from Dr. Kamal Chauhan, USDA, ARS, Beltsville), (±)-citronellal, and ethyl 2-phenylacetate. Oviposition attractants: (5R,6S)-6-acetoxy-5-hexadecanolide, MOP (Bedoukian Research, Inc.), skatole, indole, 4-methylphenol, and 4-ethylphenol. Human derived compounds: nonanal, 6-methyl-5-hepten-2-one (sulcatone). Terpenoids and other putative attractants/repellents: linalool, linalool oxide, eucalyptol, camphor, fenchone, thujone, geranyl acetate, eugenol, (Z)-3-hexenyl acetate, 1-octen-3-ol, 1-octyn-3-ol, 3-octanol, 1-hexanol, methylcyclohexanol, methyl salicylate, cyclohexanone, acetophenone, benzaldehyde, 3,5-dimethoxybenzene, 1,2-dimethoxybenzene, and 2-phenylethanol.
(§2) Fluorescence spectra were recorded in a right angle configuration on a spectrofluorimeter (RF-5301, Shimadzu, Kyoto, Japan) at room temperature using a 1 cm light path fluorimeter quartz cuvette. Slit widths of 10 nm were selected for both excitation and emission. N-phenyl-1-naphthylamine (NPN, or 1-NPN) (Ban et al., [2002]) was dissolved in methanol to yield a 1 mM stock solution. The binding affinity for NPN was determined by adding aliquots of NPN into a 10 μg/ml (microgram) protein sample. NPN was excited at 337 nm and emission spectra were recorded at high speed scanning between 350 and 500 nm. All ligands used in competition experiments were dissolved in spectrophotometric grade methanol. Binding data were collected in three independent measurements. Bound ligand was evaluated from fluorescence intensity assuming that the protein was 100% active, with a stoichiometry of 1:1 (protein: ligand) at saturation. The KNPN values were estimated using Prism 5 (GraphPad Software, Inc., La Jolla, CA) by non-linear regression for a unique site of binding. The curves were linearized using Scatchard plots. Dissociation constants of the competitors were calculated according to Campanacci et al. ([2001]) from the corresponding IC50 values in the equation: Kdiss = [IC50]/1+[NPN]/KNPN, where [NPN] is the free concentration of NPN and KNPN is the dissociation constant of the complex protein/NPN.

CquiOBP5 = CquiOBP5 (Culex quinquefasciatus, UniProt C7BDZ9); assay: biochemical; format: binding; conditions: for Int (fluorescence emission): residual NPN fluorescence, normalized to 100 prior to ligand, screen at 2–20 μM ligand; for binding to CquiOBP5 (in words): in vitro, NPN displacement
Sequence of CquiOBP5 (C7BDZ9 entry or part of it): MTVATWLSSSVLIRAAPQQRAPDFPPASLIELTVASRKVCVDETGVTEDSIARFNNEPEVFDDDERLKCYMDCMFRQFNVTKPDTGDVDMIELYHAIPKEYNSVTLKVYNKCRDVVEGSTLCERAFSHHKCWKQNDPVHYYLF
Procedure: as §1, §2

CquiOBP1 [1] = target: T1, CquiOBP1 (Culex quinquefasciatus, UniProt Q8T6I2); assay: biochemical; format: binding; conditions: for Int (fluorescence emission): residual NPN fluorescence, normalized to 100 prior to ligand, screen at 2–20 μM ligand; for binding to CquiOBP1 (in words): in vitro, NPN displacement
T1 sequence (Q8T6I2 entry or part of it): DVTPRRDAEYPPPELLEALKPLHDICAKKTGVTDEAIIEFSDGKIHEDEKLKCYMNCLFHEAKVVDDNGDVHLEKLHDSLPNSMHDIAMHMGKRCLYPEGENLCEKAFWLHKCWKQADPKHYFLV
Procedure: as §1, §2

AgamOBP1 = tested on: AgamOBP1; set-up: method as in Biessmann et al., 2010; conditions: ref Biessmann et al., 2010; cited from earlier work
AaegOBP1 = tested on: AaegOBP1; set-up: method as in Leal and Leal, 2015; conditions: ref Leal and Leal, 2015; cited from earlier work
CquiOBP1 [2] = target: T1, CquiOBP1; assay: pH-dependent binding assay; conditions: CquiOBP1-NPN quenching by ligand, pH 4.5 to 8, 4PL fit
Procedure: To investigate the effects of pH on CquiOBP1–ligand complexes, fluorescence binding assay was measured between CquiOBP1 and three best ligands at different pH values. Buffer were prepared into two different ways: starting from 1M phosphate buffer, pH 4, pH was increased and adjusted by adding sodium hydroxide. Then protein was added to make a solution at each tested pH from 4.5 to 8. Experiments were repeated starting from pH 8 and lowering the pH by adding hydrochloric acid. Each tested solution had 200 mM buffer and 10 μg/ml (microgram) of CquiOBP1. As there were no significant differences in fluorescence data generated at a certain pH regardless of having the pH raised by adding NaOH or lowered by addition of HCl, data were pooled for subsequent analysis.
The pH of the midpoint transitions was obtained by non-linear fitting, sigmoidal with an equation for four-parameter logistic (4PL) of curve segments between the lowest and highest decrease in fluorescence (the rising part of each curve). The pH values calculated for the midpoint transitions with MOP, picaridin, and nonanal were 6.3, 5.8, and 5.5, respectively. Although the pH at the surface of dendritic membrane is not known, it is predicted that too low midpoint transition may lead to odorants being trapped in OBPs and not being properly delivered. In short, the acidity at the surface of the membrane may not be enough to trigger release of a ligand with too low midpoint transition pH. By considering only the dissociation constants obtained by in vitro binding assays (Table 1), one could reasonably argue that CquiOBP1 is involved in reception of nonanal. […] Next, we compared how these ligands would interact with CquiOBP1.

[3] = tested on: Mosquitoes with reduced transcripts of CquiOBP1; set-up: method as in Pelletier et al., 2010; conditions: ref Pelletier et al., 2010; cited from earlier work
[4] = CquiOBP2, NPN displacement titration, read-out: IC50
[5] = CquiOBP2, calculated from IC50 of NPN displacement, read-out: Kd
[6] = CquiOBP5, NPN displacement titration, read-out: IC50
[7] = CquiOBP5, calculated from IC50 of NPN displacement, read-out: Kd
[8] = CquiOBP1, NPN displacement titration, read-out: IC50
[9] = CquiOBP1, calculated from IC50 of NPN displacement, read-out: Kd

Compound | IC50 (CquiOBP2; [4]) | Kd (CquiOBP2; [5]) | Int (fluorescence emission) (CquiOBP2; CquiOBP2) | IC50 (CquiOBP5; [6]) | Kd (CquiOBP5; [7]) | Int (fluorescence emission) (CquiOBP5; CquiOBP5) | IC50 (CquiOBP1 [1]; [8]) | Kd (CquiOBP1 [1]; [9]) | Int (fluorescence emission) (CquiOBP1 [1]; CquiOBP1) | also measured
CCCCCCCCCC(C)=O [2-undecanone] |  |  |  |  |  |  |  |  |  | binding to AfunOBP1 (AfunOBP1): best ligand
c1ccc2[nH]ccc2c1 [Indole, indole] | > 10 µM | > 2.5 µM | 87 | > 10 µM | > 7 µM | 80 | > 10 µM | > 6.3 µM | 86 | binding to AgamOBP1 (AgamOBP1): selectively bind
CCCCCCCCCC[C@H](OC(C)=O)[C@H]1CCCC(=O)O1 [MOP, (5R,6S)-6-acetoxy-5-hexadecanolide] | > 10 µM | > 2.5 µM | 86 | 10.3 µM | 7.2 µM | 52 | 8.4 µM | 5.3 µM | 48 | binding to CquiOBP2 (in words) (CquiOBP2): cannot displace NPN; binding to CquiOBP5 (in words) (CquiOBP5): bound; binding to CquiOBP1 (in words) (CquiOBP1 [1]): bound; binding to AaegOBP1 (AaegOBP1): bound; pH of the midpoint transition (CquiOBP1 [2]): 6.3; EAG responses, knockdown vs wild type [3]: significant lower
COC(=O)c1ccccc1O [Methyl salicylate, methyl salicylate] | > 10 µM | > 2.5 µM | 72 | > 10 µM | > 7 µM | 89 | > 10 µM | > 6.3 µM | 87 | 
c1ccc(Nc2cccc3ccccc23)cc1 [NPN, N-phenyl-1-naphthylamine] |  |  |  |  |  |  |  |  |  | Kd (CquiOBP2; direct titration of CquiOBP2 (10 μg/ml) with NPN, read-out: Kd for NPN): 0.5 ± 0.02 µM; Kd (CquiOBP5; direct titration of CquiOBP5 (10 μg/ml) with NPN, read-out: Kd for NPN): 2.3 ± 0.19 µM; Kd (CquiOBP1 [1]; direct titration of CquiOBP1 (10 μg/ml) with NPN, read-out: Kd for NPN): 1.71 ± 0.13 µM
CCCCCCCCC=O [Nonanal, nonanal] | > 10 µM | > 2.5 µM | 87 | 8.3 µM | 5.8 µM | 46.5 | 10.5 µM | 6.6 µM | 51.4 | pH of the midpoint transition (CquiOBP1 [2]): 5.5; EAG responses, knockdown vs wild type [3]: not significantly different
CC1CCC(C(C)(C)O)C(O)C1 (centres unmarked) [PMD, p-mentan-3,8-diol] | 5.3 µM | 1.3 µM | 35 | 13.8 µM | 9.6 µM | 61 | > 10 µM | > 6.3 µM | 80 | 
CCC(C)OC(=O)N1CCCCC1CCO (centres unmarked) [Picaridin, butan-2-yl 2-(2-hydroxyethyl)piperidine-1-carboxylate] |  |  | 77 |  |  | 45 |  |  | 51 | IC50 (CquiOBP2): > 10 µM; Kd (CquiOBP2): > 2.5 µM; IC50 (CquiOBP5): 7.9 µM; Kd (CquiOBP5): 5.6 µM; IC50 (CquiOBP1 [1]): 10.2 µM; Kd (CquiOBP1 [1]): 6.4 µM; pH of the midpoint transition (CquiOBP1 [2]): 5.8
Cc1c[nH]c2ccccc12 [Skatole, skatole] | 5.6 µM | 1.4 µM | 31 | 14.4 µM | 10.1 µM | 62 | > 10 µM | > 6.3 µM | 75 | binding to CquiOBP2 (in words) (CquiOBP2): bind; binding to CquiOBP5 (in words) (CquiOBP5): bind; binding to CquiOBP1 (in words) (CquiOBP1 [1]): does not bind
CC(=O)CCC=C(C)C [Sulcatone, 6-methyl-5-hepten-2-one] |  |  | 84 |  |  | 66 |  |  | 87 | IC50 (CquiOBP2): > 10 µM; Kd (CquiOBP2): > 2.5 µM; IC50 (CquiOBP5): > 10 µM; Kd (CquiOBP5): > 7 µM; IC50 (CquiOBP1 [1]): > 10 µM; Kd (CquiOBP1 [1]): > 6.3 µM
CC(C)[C@]12CC(=O)[C@H](C)[C@H]1C2 [Thujone, thujone] |  |  | 87 |  |  | 90 |  |  | 96 | IC50 (CquiOBP2): > 10 µM; Kd (CquiOBP2): > 2.5 µM; IC50 (CquiOBP5): > 10 µM; Kd (CquiOBP5): > 7 µM; IC50 (CquiOBP1 [1]): > 10 µM; Kd (CquiOBP1 [1]): > 6.3 µM
(±)-citronellal | > 10 µM | > 2.5 µM | 88 | > 10 µM | > 7 µM | 90 | > 10 µM | > 6.3 µM | 65 | 
